Measurements from paper PMC8389907 (Journal of Medicinal Chemistry, 2021).
In brackets after ≈: the same amount, converted by molar mass. Where two headings read alike, the source gives them in different places.

How the values were obtained:
DU145 cells [1] = experiment: MTT cell viability assay, DU145; assay type: cell-based; conditions: Homo sapiens, DU-145
Experimental: (§1) The cell lines DU145 (HTB-81, human prostate carcinoma), PC3 (CRL-1435, human prostate adenocarcinoma), MCF7 (HTB-22, human breast adenocarcinoma), MDA-MB231 (HTB-26, human breast adenocarcinoma), and HCT116 (CCL-247, human colorectal carcinoma) were obtained from ATCC (American Type Culture Collection, Manassas, VA, USA); WH1 human fibroblasts were kindly provided by Dr. Guven.[51] All the cells were maintained under standard culture conditions (37 °C; 5% CO2) in the RMPI1640 medium (PC3, MCF7, and MDA-MB231 cells), while DU145 and HCT116 cells were in the DMEM and Iscove’s medium (WH1 cells) supplemented with 10% fetal calf serum, 1% glutamine, and 1% antibiotics mixture; for HCT116 and DU145 cells, 1% sodium pyruvate and 1% non-essential amino acids were also added to the culture medium.
(§2) The 3-(4,5-dimethylthiazol-2-yl)-2,5-diphenyltetrazolium bromide (MTT) assay was performed on all the cell lines tested as previously described[52] with minor modifications. Briefly, according to the growth profiles previously defined for each cell line, adequate numbers of cells were plated in each well of a 96-well plate in 0.1 mL of complete culture medium. Cells were allowed to attach for 24 h before the treatment at 37 °C for 72 h with the compounds at concentrations ranging between 0.1 and 75 μM, bringing the final volume to 0.2 mL/well. Each experiment included eight replications per concentration tested; control samples were run with 0.2% DMSO. At the end of the incubation period, MTT (0.05 mL of a 2 mg/mL stock solution in PBS) was added to each well for 3 h at 37 °C. Cell supernatants were then carefully removed, the blue formazan crystals formed through MTT reduction by metabolically active cells were dissolved in 0.120 mL of DMSO, and the corresponding optical densities were measured at 570 nm using a Universal Microplate Reader EL800 (Bio-Tek, Winooski, VT).
(§3) IC50 values were estimated from the resulting concentration–response curves by nonlinear regression analysis using GraphPad Prism software, v. 5.0 (GraphPad, San Diego, CA, USA). Differences between IC50 values were evaluated statistically by analysis of variance with a Bonferroni post-test for multiple comparisons.

MCF7/ADR cells = experiment: MTT cell viability assay, DOX-resistant MCF7/ADR; assay type: cell-based, human; conditions: for IC50: Homo sapiens, NCI/ADR-RES, 72 h treatment, MTT; for R.I. (resistance index): MCF7/ADR vs MCF7
Experimental: as §2, §3

PC3 cells [2] = experiment: MTT cell viability assay, PC3; assay type: cell-based; conditions: Homo sapiens, PC-3; 72 h treatment, MTT; read-out: IC50 PC3
Experimental: as §1, §2, §3

MDA-MB231 cells = experiment: MTT cell viability assay, MDA-MB231; assay type: cell-based; conditions: Homo sapiens, MDA-MB-231; 72 h treatment, MTT; read-out: IC50 MDA-MB231
Experimental: as §1, §2, §3

HBL100 cells = experiment: MTT cell viability assay, non-tumorigenic HBL100; assay type: cell-based; conditions: Homo sapiens, HBL-100, 72 h treatment
Experimental: as §2, §3

WH1 human fibroblasts = experiment: MTT cell viability assay, WH1 fibroblasts; assay type: cell-based; conditions: Fibroblast, 72 h treatment
Experimental: as §1, §2, §3

HCT116 cells = experiment: MTT cell viability assay, HCT116; assay type: cell-based; conditions: Homo sapiens, HCT-116
Experimental: as §1, §2, §3

P. aeruginosa PAO1 [3] = experiment: Minimum inhibitory concentration, broth dilution; assay type: cell-based; conditions: Pseudomonas aeruginosa; 24 h incubation at 37 °C, strain PAO1
Experimental: P. aeruginosa PAO1 was chosen as a model microorganism[53] and was grown overnight in a Luria Bertani (LB) medium at 37 °C on an orbital shaker at 200 rpm. Minimum inhibitory concentrations (MICs) of quinolone and quinolone derivatives were determined against P. aeruginosa PAO1 by a broth dilution method. Overnight cultures were diluted 100-fold to give a cellular concentration of 10^7 CFU/mL. […] The assays were performed at least three times.

MCF7 cells = experiment: MTT cell viability assay, MCF7; assay type: cell-based; conditions: Homo sapiens, 72 h treatment, MTT, read-out: IC50 MCF7
Experimental: as §1, §2, §3

PC3 cells [4] = experiment: MTT assay with 1 h irradiation, PC3; assay type: cell-based, human; conditions: 24 h treatment, 1 h white or blue light, 48 h drug-free medium
Experimental: (§4) To evaluate the contribution of NO release on cell viability, the MTT assay was performed on DU145 and PC3 cells following treatment with 7b and 7c with 1 h irradiation and 48 h incubation in a drug-free medium.
as §3

DU145 cells [5] = experiment: MTT assay with 1 h irradiation, DU145; assay type: cell-based, human; conditions: 24 h treatment, 1 h white or blue light, 48 h drug-free medium
Experimental: as §4, §3

S. aureus ATCC 6538P = experiment: Antimicrobial photo-inactivation test, S. aureus; assay type: cell-based, Staphylococcus aureus; conditions: 10 μM, 10 min dark incubation, blue light 20 J/cm^2
Experimental: (§5) Upon the overnight growth of P. aeruginosa PAO1 and S. aureus ATCC6538P (methicillin susceptible S. aureus, MSSA), cultures were diluted in phosphate buffer (PBS–KH2PO4/K2HPO4, 10 mM, pH 7.4) to reach a concentration of ∼10^6 CFU/mL. Compound 7c was added to a cell suspension at a final concentration of 10 μM. Cells were incubated in the dark for 10 min and then irradiated under light at […] (20 J/cm^2) or incubated in the dark as a control. Soon after irradiation, the bacterial concentration was evaluated by the viability count technique. Briefly, an aliquot of each sample was 10-fold serially diluted in PBS and a volume of 10 μL of each diluted and undiluted sample was inoculated on LB agar. After overnight incubation at 37 °C, the corresponding cellular concentration was calculated and expressed as CFU/mL.

P. aeruginosa PAO1 [6] = experiment: Antimicrobial photo-inactivation test, P. aeruginosa; assay type: cell-based, Pseudomonas aeruginosa; conditions: 10 μM, 10 min dark incubation, 405 ± 10 nm, 20 J/cm^2
Experimental: as §5

[7] = 72 h treatment, MTT, read-out: IC50 DU145
[8] = 72 h treatment, MTT, read-out: IC50 HCT116

| IC50 (DU145 cells [1]; supplement csv, unit inferred, read-out: DU145 IC50) | IC50, irradiated vs kept in the dark, PC3 (PC3 cells [4]) | IC50, irradiated vs kept in the dark, DU145 (DU145 cells [5]) | IC50 (HCT116 cells; supplement csv, unit inferred, read-out: HCT116 IC50) | Compound | IC50 (DU145 cells [1]; [7]) | IC50 (MCF7/ADR cells) | R.I. (resistance index) (MCF7/ADR cells) | IC50 (PC3 cells [2]) | IC50 (MDA-MB231 cells) | IC50 (HBL100 cells) | IC50 (WH1 human fibroblasts) | IC50 (HCT116 cells; [8]) | MIC (P. aeruginosa PAO1 [3]) | IC50 (MCF7 cells) | decrease in viable S. aureus with respect to the dark incubated control (S. aureus ATCC 6538P) | antimicrobial activity upon blue light irradiation (P. aeruginosa PAO1 [6]) |
| --- | --- | --- | --- | --- | --- | --- | --- | --- | --- | --- | --- | --- | --- | --- | --- | --- |
| – | – | – | – | CCn1cc(C(=O)O)c(=O)c2cc(F)c(N3CCNCC3)cc21 [Nor, Norfloxacin, reference compound] | 12 ± 0.6 µM | 20.1 ± 1.4 µM | 1.0 | 33.6 ± 3 µM | 14.9 ± 2.7 µM | 12.4 ± 0.8 µM | 14.1 ± 2.1 µM | 12.5 ± 2.6 µM | 4.16 ± 1.8 µg/mL (≈ 13 µM) | 19.4 ± 0.7 µM | – | – |
| 1.57 ± 0.59 µM | no differences in IC50 values | no differences in IC50 values | 2.15 ± 0.39 µM | CCn1cc(C(=O)O)c(=O)c2cc(F)c(N3CCN(CCNc4ccc([N+](=O)[O-])c(C(F)(F)F)c4)CC3)cc21 [Compound 7c, 1-Ethyl-6-fluoro-7-(4-(2-((4-nitro-3-(trifluoromethyl)phenyl)amino)ethyl)piperazin-1-yl)-4-oxo-1,4-dihydroquinoline-3-carboxylic Acid] | – | 18.3 ± 1.4 µM | 8.1 | 2.33 µM | 1.52 µM | 11.1 ± 0.2 µM | 3.51 ± 0.4 µM | – | – | 2.27 µM | 2 log unit | did not show any antimicrobial activity |
| – | – | – | – | O=C(O)c1cn(C2CC2)c2cc(N3CCNCC3)c(F)cc2c1=O [Cip, Ciprofloxacin, reference compound] | 24.9 ± 0.8 µM | 19.1 ± 0.5 µM | – | 33.9 ± 2.9 µM | 19.9 ± 3.6 µM | – | – | 31.5 ± 1.5 µM | 1.82 ± 1.19 µg/mL (≈ 5.49 µM) | 8.85 ± 0.09 µM | – | – |
